Assay results taken from patent US6403347B1, “HIV integrase inhibitors” (Merck & Co., Inc., priority 1999, dated 2002).
Like-named read-outs stand apart in the source and are kept apart here.

Key:
HIV integrase = HIV integrase (Human immunodeficiency virus type 1 group M subtype B, UniProt P12497); test: Strand transfer assay for HIV integrase (microtiter assay, ligation of processed donor DNA to nicked host DNA)
Protocol: Strand Transfer Assay for HIV Integrase
A microtiter assay for ligation of processed donor (HIV) DNA to unspecific, nicked host DNA was conducted according to Hazuda, D. J. et al., Nucl. […] To assay inhibition of such strand transfer by HIV integrase, the reaction was conducted with inhibition having various concentrations in the range of 0.75 to 100 μM.

HIV-1 integrase = HIV-1 integrase (Human immunodeficiency virus type 1 group M subtype B, UniProt P12497); test: HIV integrase substrate cleavage (trimming of the 3′ end of HIV long terminal repeat terminus)
Protocol: HIV Integrase Substrate Cleavage
An assay for trimming of the 3′ and of HIV long terminal repeat terminus by HIV-1 integrase was conducted according to LaFemina, R. L. et al., J. Virol 10, 5624 (1991), herein incorporated by reference for these purposes. To assay inhibition of HIV integrase substrate cleavage, the reaction was conducted with inhibitor having various concentrations in the range of 0.75 to 100 μM.

Row | Structure (SMILES) | IC50 (HIV integrase) [µM] | IC50 (HIV-1 integrase) [µM] | IC50 (HIV integrase; inhibition of strand transfer by HIV integrase, concentrations 0.75 to 100 μM) [µM] | IC50 (HIV-1 integrase; inhibition of HIV integrase substrate cleavage, inhibitor concentrations 0.75 to 100 μM) [µM]
1 | CC1Oc2cc3c(-c4c(O)cc(O)c5c(O)c6c(cc45)OC(C)C(C)C6=O)c(O)cc(O)c3c(O)c2OC(=O)C1C (centres unmarked) [Compound C] | 9 | 3 |  | 
2 | COc1cc(O)c2c(OC)c3c(cc2c1-c1c(OC)cc(OC)c2c(OC)c4c(cc12)OC(C)C(C)C4=O)OC(C)C(C)C3=O (centres unmarked) [Compound F] |  | 40 |  | 
3 | CC1Oc2cc3c(-c4c(O)cc(O)c5c(O)c6c(cc45)OC(C)C(C)C6=O)c(O)cc(O)c3c(O)c2C(=O)C1C (single isomer, unassigned) [Compound B] |  |  | 12 | 2
4 | COc1cc(OC)c2c(OC)c3c(cc2c1-c1c(OC)cc(OC)c2c(OC)c4c(cc12)OC(C)C(C)C4=O)OC(C)C(C)C3=O (centres unmarked) [Compound G] |  | 60 |  | 
5 | Cc1oc2cc3c(-c4c(O)cc(O)c5c(O)c6c(cc45)OC(C)C(C)C6=O)c(O)cc(O)c3c(O)c2c(=O)c1C (centres unmarked) [Compound D] | 4 | 1 |  | 
6 | CC1Oc2cc3c(-c4c(O)cc(O)c5c(O)c6c(cc45)OC(C)C(C)C6=O)c(O)cc(O)c3c(O)c2C(=O)C1C (single isomer, unassigned) [Compound A] | 12 | 2 |  | 
7 | CC(=O)Oc1cc(OC(C)=O)c2c(OC(C)=O)c3c(cc2c1-c1c(OC(C)=O)cc(OC(C)=O)c2c(OC(C)=O)c4c(cc12)OC(C)C(C)C4=O)OC(C)C(C)C3=O (centres unmarked) [E] |  | 50 |  | 
